Values of other authors in US20030027808A1, “Farnesyl protein transferase inhibitor combinations with platinum compounds” (priority 2000, published 2003).

Test system: colon cancer (LoVo)
Details: in combination with cisplatin; in vitro LoVo colon cancer model; reported at 90th AACR Annual Meeting, Apr. 10-14, 1999

Q: With Cn1cncc1C(N)(c1ccc(Cl)cc1)c1ccc2c(c1)c(-c1cccc(Cl)c1)cc(=O)n2C (single isomer, unassigned; (+)) [(+)-6-[amino(4-chlorophenyl)(1-methyl-1H-imidazol-5-yl)methyl]-4-(3-chlorophenyl)-1-methyl-2(1H)-quinolinone] as the compound, how does the “anti-tumor effect of the combination” value read?
A: Its value is “additive anti-tumor effect”.
